Tests used:
[1] = tested on: phospho-ERK1/2 in serum-starved A549 cells; assay: Inhibition of ERK1/2 phosphorylation (Western blot, densitometry); type: cell-based; details: 4 h, Western blot with pERK antibodies
Experimental: (§1) All steps were performed on a sterile clean bench Telstar AV-100 at rt. Solutions stored in a fridge were warmed beforehand in a water bath (37 °C). Unless otherwise specified, all incubations were performed in DMEM containing 5% of fetal bovine serum (FBS-DMEM). Cell Culture: A549 cell line was cultured in DMEM (Dulbecco´s modified Eagle´s medium), 5 mM glutamine, penicillin (100 units/mL) and streptomycin (100 units/mL), all from Invitrogen. Proliferating cultures were maintained in a 5% CO2 humidified incubator at 37 °C. For all the experiments, cells were seeded in the corresponding well at the indicated concentration 2 days before treatment. A549 cells were seeded on glass-bottom plates 48 h (150.000 cell/ml) before treatment. […] (10 µM) were added. The metallopeptide was made just before the addition to cells by pre-incubating with metal complexes (1:1) in water for 10 min. After 30 min of incubation with cells, these were washed twice with PBS and replaced with fresh FBS-DMEM to observe under the microscope with adequate filters. Digital pictures of the different samples were taken under identical conditions of gain and exposure. A549 cells were seeded on glass-bottom plates (150.000 cell/ml) 48 h before treatment. […] After two washes with PBS, the cells were lysed in Laemmli buffer containing Tris pH 6,8 1 M, Glycerol, SDS, Bromophenol Blue, and β-mercaptoethanol, and heated at 95 °C for 10 min. The samples were separated by SDS-12.5% polyacrylamide gel and transferred to nitrocellulose membrane, to probed by Western blotting. […] The visualization was performed with ChemiDoc MP imaging system by Biorad, and the processing of the images and densitometry quantification was carried out with ImageLab program.

[2] = Circular dichroism (α-helical content); type: physicochemical; details: 10% TFE, 25 °C
Experimental: Circular Dichroism was measured on a Jasco-715 coupled with a thermostat Nestlab RTE-111 using a 2 mm Hellma cuvette at 25 °C and the following settings: Acquisition range, 300-195 nm; band width, 2.0 nm; resolution, 0.2 nm; accumulation, 5 scans; sensitivity, 10 mdeg; response time, 0.25 s; speed, 100 nm/min. The spectra are the average of 5 scans and were processed using the “smooth” macro in the program KaleidaGraph (v 3.5 by Synergy Software).
Circular Dichroism. Circular Dichroism was measured on a Jasco-715 coupled with a thermostat Nestlab RTE-111 using a 2 mm Hellma cuvette at 25 °C and the following settings: Acquisition range, 300 -195 nm; band width, 2.0 nm; resolution, 0.2 nm; accumulation, 5 scans; sensitivity, 10 mdeg; response time, 0.25 s; speed, 100 nm/min. The spectra are the average of 5 scans and were processed using the “smooth” macro in the program KaleidaGraph (v 3.5 by Synergy Software).
Fig S3. Left: CD titration experiment.
5 and 10 equivalents of cis-PdCl2(en). The experiments were carried out in 10 mM phosphate buffer pH 7.5, 100 mM of NaCl and 10% TFE, 25 °C. Mean residue molar ellipticity ([ Θ]MRE) was calculated considering the peptide as an 18-mer.
(1 picture or pasted object on this page, not shown here)

A549 cells = assay: Cell internalization by fluorescence microscopy; type: cell-based; details: for cellular internalization (intracellular TMR fluorescence), in words: A549 cells, 10 µM, 30 min at 37 °C, DMEM with 5% FBS, washed with PBS, fluorescence microscopy
Experimental: as §1
All images were obtained with an Andor Zyla mounted on a Nikon TiE. LED excitation wavelength 550 nm. Filter cube TRITC-B-000 (Semrock): BP 543/22 nm, […] 593/40 nm, and DM 562 nm. Images were further processed with Image J.

HeLa cells = assay: MTT toxicity assay; details: long incubation (24 h), up to 100 µM
Experimental: cells as follows: 100,000 cells per well were seeded in 96 well plates two days before treatment with different
concentrations of the peptides/metal. After 24 h of incubation, HEPES containing 3-(4,5-dimethylthiazol-2-
yl)-2,5-diphenyl tetrazolium bromide (MTT) was added to the cell culture medium to a final concentration of
0.5 mg/ml. Cells were then incubated for 4 h to allow the formation of formazan precipitates by metabolically
active cells. A detergent solution of 10% SDS (sodium dodecyl sulphate) and 0.01 M HCl was then added,
and the plate was incubated overnight at room temperature to allow the solubilization of the precipitates.
The quantity of formazan in each well (directly proportional to the number of viable cells) was measured by
recording changes in absorbance at 570 nm in a microtiter plate reading spectrophotometer (Tecan Infinite
Toxicity assay. HeLa cells were incubated with peptide, metallopeptide and palladium at
different concentrations, for 24 h at 37 °C. Then, the cells were washed two time with PBS before carry ing
out the MTT assay. Data are mean +/- SEM for experimental repeated in two independent times.

Row | α-helical content ([2]; from CD band at 222 nm, 20 µM peptide + 1 eq. cis-PdCl2(en), 10 mM phosphate pH 7.5, 100 mM NaCl) | mean residue molar ellipticity at 222 nm ([2]; CD, 20 µM peptide, 10 mM phosphate buffer pH 7.5, 100 mM NaCl, calculated for an 18-mer, metallopeptide 30 min after 1 eq. cis-PdCl2(en)) | Compound | levels of ERK phosphorylation, in words [1] | cellular internalization (intracellular TMR fluorescence), in words (A549 cells) | cell localization by fluorescence microscopy (A549 cells; cells incubated with the metallopeptide, authors' reply to reviewers) | cell viability in MTT assay, in words (HeLa cells)
1 | about 22% |  | CC[C@H](C)[C@H](NC(=O)CNC(=O)[C@H](Cc1ccccc1)NC(=O)[C@H](Cc1ccccc1)NC(=O)[C@H](CCCNC(=N)N)NC(=O)[C@H](CCCNC(=N)N)NC(=O)CCCCCNC(=O)c1ccc2c(c1)C(=O)OC21c2ccc(N(C)C)cc2Oc2cc(N(C)C)ccc21)C(=O)N[C@@H](Cc1c[nH]cn1)C(=O)N[C@@H](CC(C)C)C(=O)N[C@H](C(=O)N[C@@H](CC(N)=O)C(=O)N[C@@H](Cc1c[nH]cn1)C(=O)N[C@@H](CC(C)C)C(=O)N[C@@H](CCCCN)C(=O)N[C@H](C(=O)N[C@@H](CCC(=O)O)C(=O)N[C@@H](CCC(=O)O)C(=O)NCC(=O)N[C@@H](CC(N)=O)C(N)=O)[C@@H](C)O)[C@@H](C)O [αH-His2[Pd]] | significant decrease | intense intracellular fluorescence signal | endosomal localization | 
2 |  | ≈ −2200 deg cm^2 dmol^−1 | TMR-Ahx-RRFFGIHLTNHLKTEEGN [αH-His2] | failed to induce changes | rather poor internalization |  | 
3 |  |  | NCCN.[Cl][Pd][Cl] [cis-PdCl2(en), reference compound] | failed to induce changes |  |  | remains high

— paper PMC9814687, “Controlling oncogenic KRAS signaling pathways with a Palladium-responsive peptide” (Communications Chemistry, 2022)
